The values below come from ChEMBL document CHEMBL3507680, “University of Dundee, Gates Library screen for HepG2 cell viability”.

The data set can be described thus: Human HepG2 cell viability assay in 384 well format. Also on record: dose 125 nL, time 70.5 hour; concentration not given beside the values. The note with it: HepG2 cells, read-out: Inhibition. The format is toxicity, cell-based.
Turning to `CC(C)Oc1ncc(C(=O)N2CCC(N(C)C)CC2)cc1Cl`, the cytotoxicity at 70.5 h was -9.31%.

Regarding `CCCc1nc(CN2CCCC2Cn2cccn2)cs1` (stereo not given), the cytotoxicity at 70.5 h is -11.6%.

`CC(C)(C)c1noc(CN2CCN(C(=O)c3ccco3)CC2)n1`: the cytotoxicity at 70.5 h was 14.9%.

Turning to `CC(C)C(=O)NC1CCN(CCO)CC1`, the cytotoxicity at 70.5 h was 4.41%.

As to `c1ccc(-c2nnc(CNCC3CCCN3c3cccnn3)o2)cc1` (stereo not given), the cytotoxicity at 70.5 h was determined as 7.04%.

As to `CN(Cc1nnc(C2CC2)o1)C1CCN(CCc2cccs2)C1` (stereo not given), the cytotoxicity at 70.5 h was determined as 30.4%.

For the compound `CC1CCCCN1CCNC(=O)c1ccccc1N1CCOCC1` (stereo not given), the cytotoxicity at 70.5 h came to 19%.

`CC1Cc2ccccc2N1Cc1occc1C(=O)O` (stereo not given): the cytotoxicity at 70.5 h was -5.89%.

As to `O=C(Nc1nnc(C2CC2)s1)NC1CCOc2ccccc21` (stereo not given), the cytotoxicity at 70.5 h came to 22.9%.

In the case of `CC(C)c1nnc(NC(=O)NC2CCOc3ccccc32)s1` (stereo not given), the cytotoxicity at 70.5 h is -2.44%.

`CN(CC(N)=O)S(=O)(=O)c1ccc(F)cc1F`: the cytotoxicity at 70.5 h is -7.55%.

`CNC(=O)CCNC(=O)c1ccccc1N1CCOCC1`: the cytotoxicity at 70.5 h is -4.86%.

Turning to `COCCN1CCC(NC(=O)C(C)C)CC1`, the cytotoxicity at 70.5 h was -1.39%.

Turning to `CC(=O)N1CCN(CC(=O)N2CCN(c3cccc(C)c3)CC2)CC1`, the cytotoxicity at 70.5 h amounted to 24.4%.

`CS(=O)(=O)c1ccc(OCCNCc2cccc(Cl)c2)cc1`: the cytotoxicity at 70.5 h came out at 23.8%.

For `CNS(=O)(=O)CCCn1nnc(-c2ccc(F)c(C)c2)n1`, the cytotoxicity at 70.5 h is -3.63%.

As to `Cc1ccc(OCC(=O)NC2CC2)nc1`, the cytotoxicity at 70.5 h was -2.52%.

Take `CS(=O)(=O)c1ccc(OCCNCc2ccc(F)cc2)cc1`: the cytotoxicity at 70.5 h was -1.74%.

As to `CC(C)Oc1cccc(C(O)CNC(=O)NCc2cccs2)c1` (stereo not given), the cytotoxicity at 70.5 h came out at 3.68%.

For `Cc1noc(C)c1CNC(=O)N1CCCC(C)CC1` (stereo not given), the cytotoxicity at 70.5 h is -3.6%.

`CNC(=O)CN1CCN(C(=O)Nc2ccc(Cl)cc2F)CC1`: the cytotoxicity at 70.5 h was -1.72%.

With `CCN(C(=O)C(C)C)C(c1cccnc1)c1ccc2c(c1)CCO2` (stereo not given), the cytotoxicity at 70.5 h worked out at 18.4%.

Regarding `CCC(=O)N(CC)C(c1cccnc1)c1ccc2c(c1)CCO2` (stereo not given), the cytotoxicity at 70.5 h is -2.76%.

On to `CCCC(=O)N(CC)C(c1cccnc1)c1ccc2c(c1)CCO2` (stereo not given), for which the cytotoxicity at 70.5 h was -4.67%.

As for `CN(Cc1nnc(C2CC2)n1C)C1CCN(CCc2ccncc2)C1` (stereo not given), the cytotoxicity at 70.5 h was -6%.

Consider `CC(C)c1nnc(CNCC2CCCN2c2cccnn2)o1` (stereo not given), for which the cytotoxicity at 70.5 h is -6.87%.

On to `c1cnnc(N2CCCC2CNCc2nnc(C3CC3)o2)c1` (stereo not given), for which the cytotoxicity at 70.5 h was -3.19%.

On to `COc1c(CNCc2cccnc2N2CCOCC2)c(C)nn1C`, for which the cytotoxicity at 70.5 h turned out to be 1.9%.

For the compound `N#Cc1ccccc1C(=O)Nc1cccc(CN2CCC(CO)CC2)c1`, the cytotoxicity at 70.5 h was -5.53%.

On to `NC(=O)CSc1ccccc1NC(=O)C1CCCCC1`, for which the cytotoxicity at 70.5 h worked out at 28.8%.

As to `NC(=O)CSc1ccccc1NC(=O)CC1C=CCC1` (stereo not given), the cytotoxicity at 70.5 h came to 27.1%.

For `CC(C)(C)CC(=O)Nc1ccccc1SCC(N)=O`, the cytotoxicity at 70.5 h is -3.84%.

Regarding `CC(=O)NCCCSCCOc1cccc(C#N)c1`, the cytotoxicity at 70.5 h turned out to be 2.91%.

Take `CC(C)(O)CN1CCN(C(=O)COC2CCCCC2)CC1`: the cytotoxicity at 70.5 h is 1.44%.

Regarding `c1csc(SCC2CN=C(N3CCOCC3)S2)c1` (stereo not given), the cytotoxicity at 70.5 h was -3.45%.

Turning to `Cc1ccc(CNC(=O)CN2CCN(CCO)CC2)s1`, the cytotoxicity at 70.5 h is -6.79%.

As to `Cc1ccc(C(O)CNC(=O)CCCc2ccccn2)o1` (stereo not given), the cytotoxicity at 70.5 h is -8.17%.

As for `CN(CC(=O)N1CCCC1c1ccccn1)Cc1ccccc1` (stereo not given), the cytotoxicity at 70.5 h is -6.16%.

On to `Cc1ccc(C(=O)N2CCOc3nc(C)ccc32)c(F)c1`, for which the cytotoxicity at 70.5 h came out at 26.7%.

As for `CNC(=O)COc1cccc(CNCc2c(C)noc2C)c1`, the cytotoxicity at 70.5 h amounted to 10.2%.

`CC(C)c1nnc(NC(=O)Cc2ccc(F)cc2)[nH]1`: the cytotoxicity at 70.5 h is -13.1%.

For the compound `CNC(=O)COc1cccc(CNC(=O)c2c(C)noc2C)c1`, the cytotoxicity at 70.5 h was -10.6%.

As to `CN(Cc1ccc(Cl)s1)C(=O)CN1CC(n2cccn2)C1`, the cytotoxicity at 70.5 h is -14.6%.

Consider `CSc1ccsc1C(=O)NS(=O)(=O)c1cnn(C)c1`, for which the cytotoxicity at 70.5 h was -15.6%.

Consider `CCc1cc(CNC(=O)Nc2cc(F)ccc2N2CCCCC2)on1`, for which the cytotoxicity at 70.5 h was -2.62%.

Consider `O=C(CN1CCSC2(CCCCC2)C1)NCC(F)(F)F`, for which the cytotoxicity at 70.5 h is -10.8%.

Regarding `CSc1ccsc1C(=O)NS(=O)(=O)c1ccc(F)cc1`, the cytotoxicity at 70.5 h is -7.27%.

`O=C(Nc1cc(CSCCO)ccn1)c1cc2ccccc2[nH]1`: the cytotoxicity at 70.5 h is 13.4%.

Take `CCOc1cccc(CCNC(=O)Cc2cccc(O)c2)n1`: the cytotoxicity at 70.5 h is -7.71%.

Take `CN(Cc1ccc([S+](C)[O-])cc1)c1ccc(Cl)cn1` (stereo not given): the cytotoxicity at 70.5 h worked out at 20.8%.

Turning to `Cn1ncnc1CNC1CCc2cc(Cl)ccc21` (stereo not given), the cytotoxicity at 70.5 h is -19.7%.

`Cn1ncnc1CNC1CCCc2cc(F)ccc21` (stereo not given): the cytotoxicity at 70.5 h is -11.4%.

For the compound `Cc1n[nH]cc1CNC(C(=O)N1CCOCC1)c1ccccc1` (stereo not given), the cytotoxicity at 70.5 h stood at 15.2%.

As for `Cc1noc(C)c1CC(=O)OCc1nc(N)c2ccccc2n1`, the cytotoxicity at 70.5 h is -3%.

On to `Cc1cccc(C(C)(C)CNC(=O)CCSc2nnnn2C)c1`, for which the cytotoxicity at 70.5 h is -2.6%.

`Cc1nc(-c2ccccc2)n(CC(=O)NC(C)C2CC2)n1` (stereo not given): the cytotoxicity at 70.5 h was -5.73%.

In the case of `Cc1nc(-c2ccccc2C)n(CC(=O)NC(C)C)n1`, the cytotoxicity at 70.5 h stood at 12.9%.

For the compound `Cc1ccccc1C(C)(C)CNC(=O)CCSc1nnnn1C`, the cytotoxicity at 70.5 h is -1.67%.

As for `Cc1ccc(CNc2ccc(C(=O)N3CCNC(=O)C3)cn2)cc1`, the cytotoxicity at 70.5 h was 4.12%.

With `CC(C)n1cc(S(=O)(=O)NCCc2nnc3ccccn23)cn1`, the cytotoxicity at 70.5 h was determined as 5.41%.

On to `COc1cccc(CNC(=O)Nc2ccc3[nH]nnc3c2)c1OC`, for which the cytotoxicity at 70.5 h was -9.41%.

With `O=S(=O)(NCCc1nnc2ccccn12)c1cccnc1`, the cytotoxicity at 70.5 h came out at 14.7%.

Regarding `N#Cc1ccc(N2CCN(c3cnccn3)CC2)c(C(F)(F)F)c1`, the cytotoxicity at 70.5 h is 2.94%.

Take `Cn1cnnc1-c1cncc(NCc2cccc3c2OCO3)c1`: the cytotoxicity at 70.5 h was -1.67%.

As to `Cc1cc(=O)c(C(=O)Nc2cccc(CCN3CCCC3)c2)c[nH]1`, the cytotoxicity at 70.5 h was -2.1%.

On to `CC(=O)c1ccc(NC(=O)NCc2cccc(N(C)C)n2)cc1C`, for which the cytotoxicity at 70.5 h is -1.51%.

Turning to `O=S(=O)(c1cccnc1)N1CCC(OCCCc2ccccc2)C1` (stereo not given), the cytotoxicity at 70.5 h was -0.248%.

In the case of `Cc1ccc(F)c(C(=O)Nc2cccc(CCN3CCCC3)c2)c1`, the cytotoxicity at 70.5 h was -1.18%.

In the case of `Cc1ccc(S(=O)(=O)N2CCn3nc(C)nc3C2)c(Cl)c1`, the cytotoxicity at 70.5 h is -2.97%.

In the case of `C1CCN(CCOC2CCNCC2)C1`, the cytotoxicity at 70.5 h is -2.17%.

In the case of `N#CCCN(Cc1cccnc1)C(=O)c1ccc(-n2cnnn2)cc1`, the cytotoxicity at 70.5 h was -12.1%.

Regarding `Cn1cnnc1CNC(=O)C1CCCN(Cc2cccc(F)c2)C1` (stereo not given), the cytotoxicity at 70.5 h is -13.7%.

With `O=C(Cn1nnc(-c2cc3ccccc3o2)n1)N1CCOCC1`, the cytotoxicity at 70.5 h is -18.1%.

Take `O=C1CCC(C(=O)NCCOc2cccc(Cl)c2Cl)CN1` (stereo not given): the cytotoxicity at 70.5 h is -13.1%.

Take `CC(C)CNC(=O)c1ccc(NC(=O)NC(C)C)cc1Cl`: the cytotoxicity at 70.5 h was -11.5%.

Turning to `Cc1nc(NC(=O)C2CCCN(C(=O)C3CC3)C2)sc1C` (stereo not given), the cytotoxicity at 70.5 h is -14.8%.

For the compound `CNC(=O)Cn1nnc(-c2cc3ccccc3o2)n1`, the cytotoxicity at 70.5 h is -5.34%.

As for `O=C(CCc1ccc(F)cc1)NCc1ccnc(NC2CC2)c1`, the cytotoxicity at 70.5 h was -2.2%.

Turning to `Cc1ncc2c(n1)CCCC2NC(=O)c1ccccc1Cn1cncn1` (stereo not given), the cytotoxicity at 70.5 h was 18.1%.

As to `CC(C)C(=O)NCCNC(=O)C12CCC(=O)N1c1cc(Cl)ccc1S2` (stereo not given), the cytotoxicity at 70.5 h was -1.8%.

Regarding `Cc1cccc(N(CC(=O)N2CCCCC2)Cc2ccno2)c1`, the cytotoxicity at 70.5 h was -5.71%.

Turning to `OCCN(Cc1nc(-c2ccc3c(c2)OCO3)no1)CC1CC1`, the cytotoxicity at 70.5 h came to 4.42%.

As to `Cc1ncc(CNCC(=O)NCC(F)(F)F)n1-c1ccccc1`, the cytotoxicity at 70.5 h was -5.37%.

`CC(C)C(=O)N1CCCN(C(=O)NC2CCc3ccccc3C2)CC1` (stereo not given): the cytotoxicity at 70.5 h is -4.48%.

`COc1cccc(NC(=O)CNc2ccc(C(=O)N(C)C)c(Cl)c2)c1`: the cytotoxicity at 70.5 h is -4.79%.

In the case of `CCOC(=O)Cn1ccc2cc(NC(=O)N3CCSCC3)ccc21`, the cytotoxicity at 70.5 h was found to be 1.82%.

On to `Cc1csc(N2CCN(Cc3ccn(C)c(=O)c3)CC2)n1`, for which the cytotoxicity at 70.5 h is -5.98%.

For `c1cnc(N2CCN(Cn3nccc3-c3cccnc3)CC2)nc1`, the cytotoxicity at 70.5 h is 5.37%.

Take `CC(C)(C)CCN1CCN(Cn2nccc2-c2cccnc2)CC1`: the cytotoxicity at 70.5 h was found to be 0.907%.

Take `Cn1cc(CCCNC(=O)NC2CCN(c3ccccc3)C2=O)cn1` (stereo not given): the cytotoxicity at 70.5 h was -5.19%.

As for `CCc1ccc(C(=O)Nc2cc(N3CCNC3=O)ccc2Cl)o1`, the cytotoxicity at 70.5 h was -5.46%.

Regarding `Cn1cc(CCCNC(=O)NC2CCN(CC(F)(F)F)C2=O)cn1` (stereo not given), the cytotoxicity at 70.5 h was -3.21%.

Take `Cc1ccc(CCNC(=O)NC2CCN(CC(F)(F)F)C2=O)cn1` (stereo not given): the cytotoxicity at 70.5 h was -5.39%.

As for `N#Cc1c(F)cccc1NCCCOCC1CCOC1` (stereo not given), the cytotoxicity at 70.5 h was -0.771%.

As for `N#Cc1cc(F)c(NCCCOCC2CCOC2)c(F)c1` (stereo not given), the cytotoxicity at 70.5 h was 7.98%.

Take `N#Cc1ccc(NCCCOCC2CCCO2)c(F)c1` (stereo not given): the cytotoxicity at 70.5 h was determined as 2%.

Take `COCC(NC(=O)NCc1cccc(Cl)c1)c1ccco1` (stereo not given): the cytotoxicity at 70.5 h is -5.77%.

Consider `Cc1cc(NS(=O)(=O)c2cnc3onc(C)c3c2)no1`, for which the cytotoxicity at 70.5 h was 0.112%.

Turning to `CN(C)CCN(Cc1ccco1)C(=O)Cc1cn2ccsc2n1`, the cytotoxicity at 70.5 h is -3.81%.

Take `COCC(NC(=O)NCc1sccc1C)c1ccco1` (stereo not given): the cytotoxicity at 70.5 h was 1.36%.

Take `COc1ccc(C(C)(C)C(=O)NCc2n[nH]c(=O)[nH]2)cc1`: the cytotoxicity at 70.5 h was -1.62%.

Consider `COc1ccc(S(=O)(=O)NC(=O)c2ccccc2F)cc1OC`, for which the cytotoxicity at 70.5 h was 1.07%.

Consider `c1cncc(-c2ccnn2CN2CCOCC2)c1`, for which the cytotoxicity at 70.5 h worked out at 0.876%.

As to `NCCNS(=O)(=O)Cc1ccc(Br)cc1`, the cytotoxicity at 70.5 h is -0.385%.

`NCCCNS(=O)(=O)Cc1ccc(Br)cc1`: the cytotoxicity at 70.5 h was -9.57%.
